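Grown in 96-well plates, cells were treated for 48 hours with each compound at five concentrations. Insufficient inhibition: endpoint recorded as highest concentration tested. Definition used: TGI = concentration required for complete inhibition of growth.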

Holding throughout (experiment): NCI-60 cell line screen, 48 h
For assay [1], the system named is SNB-75 CNS.
The test system of assay [2] is SN12C renal.
The test system of assay [3] is BT-549 breast.
Assay [4] relates to U251 CNS.
Assay [5] deals with K-562 leukemia.
In assay [6] the test system is SR leukemia.
The test system of assay [7] is NCI-H522 lung.
The test system of assay [8] is NCI/ADR-RES ovarian.
Assay [9] deals with MOLT-4 leukemia.
In assay [10] the test system is OVCAR-4 ovarian.
Assay [11] relates to IGROV1 ovarian.
The test system of assay [12] is LOX IMVI melanoma.
The subject of assay [13] is OVCAR-3 ovarian.
Assay [14] concerns SW-620 colon.
Assay [15] relates to MDA-N.
In assay [16] the test system is CCRF-CEM leukemia.
Assay [17] has as its system PC-3 prostate.
The subject of assay [18] is NCI-H460 lung.
Assay [19] has as its system HS 578T breast.

Consider `CC(=O)O[C@@H]1O[Si](C(C)(C)C)(C(C)(C)C)[C@H](C)[C@H]1C`, for which the TGI in assay [1], in assay [2], in [3], in [4], in assay [5] and in assay [6] was above 100 µM throughout. In addition, the TGI in assay [7] was above 100 µM; in assay [8] it was above 100 µM; in assay [9], 65.7 µM; in assay [10], above 100 µM; in [11], above 100 µM; in assay [12], above 100 µM. Also, the TGI in [13], in assay [14], in [15], in assay [16] and in [17] was above 100 µM in each case.
With `COc1ccc(-c2nc(-c3cnccn3)n(COCCO)n2)cc1`, the TGI in assay [2], in assay [3], in assay [4], in [5], in [6] and in assay [7] was above 100 µM throughout. In addition, the TGI in assay [8], in assay [9], in assay [10], in assay [11], in [12] and in [13] was above 100 µM throughout. Further, the TGI in assay [14], in assay [18], in [15], in assay [16] and in assay [17] was above 100 µM in each case.
Take `COc1ccc(N2C(=O)/C(=C\c3cccc(Oc4ccccc4)c3)SC2c2ccccc2)cc1` (configuration not stated): the TGI is above 100 µM in assay [2]; above 100 µM in [3]; above 100 µM in [4]; above 100 µM in assay [5]; 59.2 µM in [6]; 58.9 µM in assay [7]. Besides, the TGI is above 100 µM in assay [8]; 74.1 µM in [9]; above 100 µM in [10]; above 100 µM in assay [19]; above 100 µM in assay [12]; above 100 µM in [13]. In addition, the TGI in [14] was above 100 µM; in [18], above 100 µM; in [15], above 100 µM; in [16], 44.8 µM.
On to `O=C(Nn1cnn2c(=O)c3ccccc3nc2c1=O)c1ccccc1`, for which the TGI in [1], in assay [2], in assay [3], in assay [4], in assay [5] and in [6] was above 100 µM in each case. The TGI in assay [7], in assay [10], in assay [11], in assay [19], in [12] and in assay [13] was above 100 µM in each case. Moreover, the TGI in [14], in assay [18], in assay [15], in [16] and in assay [17] was above 100 µM throughout.
With `CCCCCCCCCc1c(O)c(O)c(CCCCCCCCC)c(CCCCCCCCC)c1CCCCCCCCC`, the TGI in [2], in assay [3], in assay [4], in assay [5], in assay [7] and in assay [8] was above 100 µM each time. For the same molecule, the TGI in [9], in [10], in assay [11], in assay [19], in [12] and in assay [13] was above 100 µM in each case. In addition, the TGI is above 100 µM in assay [14]; above 100 µM in assay [18]; above 100 µM in assay [15]; 88.6 µM in assay [16]; above 100 µM in [17].
As for `O=C1CN(c2ccc(Cl)cc2)C(=O)CN1NCNN1CC(=O)N(c2ccc(Cl)cc2)CC1=O`, the TGI in [1], in [2], in [3], in assay [4], in assay [6] and in assay [7] was above 100 µM throughout. Further, the TGI in assay [9], in [10], in assay [11], in assay [19], in [13] and in [14] was above 100 µM each time. Besides, the TGI in [18], in [15], in [16] and in assay [17] was above 100 µM in each case.
As for `COc1ccc2nc3n(c2c1)C(c1c(Cl)cccc1Cl)SC3` (configuration not stated), the TGI in assay [1], in assay [2], in [3], in assay [4], in [5] and in assay [6] was above 100 µM each time. The TGI in assay [8] is above 100 µM; in assay [9], above 100 µM; in [10], 65.9 µM; in [11] it was above 100 µM; in [12], above 100 µM; in assay [13] it was above 100 µM. In addition, the TGI in [14], in [18], in assay [15], in [16] and in assay [17] was above 100 µM throughout.

These data come from PubChem BioAssay (NCI).
